Assay results published in ChEMBL document CHEMBL4507310, “Data for DCP probe A-1211212” (2021).

Experiments:
[1] = biological target: Angiotensin-converting enzyme (Homo sapiens) (UniProt P12821); experiment: ACE (h) Eurofins-Cerep enzyme and uptake assay; conditions: Compound concentration 10.0 uM
[2] = biological target: Tyrosine-protein kinase ABL1 (Homo sapiens) (UniProt P00519); conditions: Compound concentration 1000.0 nM
[3] = biological target: Activin receptor type-1 (Homo sapiens) (UniProt Q04771); conditions: Compound concentration 1000.0 nM
[4] = biological target: RAC-gamma serine/threonine-protein kinase (Homo sapiens) (UniProt Q9Y243); conditions: Compound concentration 1000.0 nM
[5] = test system: ALK tyrosine kinase receptor (Homo sapiens), Q9UM73 [L1196M]; conditions: Compound concentration 1000.0 nM
[6] = biological target: 5'-AMP-activated protein kinase catalytic subunit alpha-1 (Homo sapiens) (UniProt Q13131); conditions: Compound concentration 1000.0 nM
Sequence of 5'-AMP-activated protein kinase catalytic subunit alpha-1 (Homo sapiens) (Q13131 whole entry, looked up): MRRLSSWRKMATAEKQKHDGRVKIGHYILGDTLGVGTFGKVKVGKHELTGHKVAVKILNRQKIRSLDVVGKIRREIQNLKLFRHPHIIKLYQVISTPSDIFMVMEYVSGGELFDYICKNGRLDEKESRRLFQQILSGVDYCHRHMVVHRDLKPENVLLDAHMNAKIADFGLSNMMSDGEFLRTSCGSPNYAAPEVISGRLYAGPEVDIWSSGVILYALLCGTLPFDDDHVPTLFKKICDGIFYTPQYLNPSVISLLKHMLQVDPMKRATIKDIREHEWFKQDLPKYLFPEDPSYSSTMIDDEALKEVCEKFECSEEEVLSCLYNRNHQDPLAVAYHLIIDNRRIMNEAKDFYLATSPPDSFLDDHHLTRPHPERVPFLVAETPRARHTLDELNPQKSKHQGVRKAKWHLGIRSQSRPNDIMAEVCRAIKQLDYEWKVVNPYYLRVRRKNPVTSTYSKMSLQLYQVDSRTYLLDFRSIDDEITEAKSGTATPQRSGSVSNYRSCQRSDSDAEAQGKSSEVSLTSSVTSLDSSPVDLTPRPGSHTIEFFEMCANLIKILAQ

[7] = biological target: Calcium/calmodulin-dependent protein kinase type 1 (Homo sapiens) (UniProt Q14012); conditions: Compound concentration 1000.0 nM
Sequence of Calcium/calmodulin-dependent protein kinase type 1 (Homo sapiens) (Q14012 whole entry, looked up): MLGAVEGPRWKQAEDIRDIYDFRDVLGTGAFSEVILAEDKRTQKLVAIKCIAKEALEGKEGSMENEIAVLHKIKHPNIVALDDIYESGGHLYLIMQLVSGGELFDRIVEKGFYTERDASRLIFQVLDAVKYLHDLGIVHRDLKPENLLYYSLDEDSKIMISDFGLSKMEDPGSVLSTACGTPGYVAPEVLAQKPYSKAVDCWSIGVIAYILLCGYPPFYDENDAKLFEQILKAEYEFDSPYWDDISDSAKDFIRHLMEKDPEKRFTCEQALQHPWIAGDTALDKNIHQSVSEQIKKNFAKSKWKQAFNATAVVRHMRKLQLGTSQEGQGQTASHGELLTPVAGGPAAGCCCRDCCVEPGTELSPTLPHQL

[8] = biological target: Cyclin-dependent kinase-like 2 (Homo sapiens) (UniProt Q92772); conditions: Compound concentration 1000.0 nM
[9] = biological target: Macrophage colony-stimulating factor 1 receptor (Homo sapiens) (UniProt P07333); conditions: Compound concentration 1000.0 nM
[10] = biological target: Casein kinase I isoform alpha-like (Homo sapiens) (UniProt Q8N752); conditions: Compound concentration 1000.0 nM
[11] = biological target: Death-associated protein kinase 1 (Homo sapiens) (UniProt P53355); conditions: Compound concentration 1000.0 nM
[12] = biological target: Serine/threonine-protein kinase DCLK1 (Homo sapiens) (UniProt O15075); conditions: Compound concentration 1000.0 nM
[13] = biological target: Tyrosine-protein kinase Fgr (Homo sapiens) (UniProt P09769); conditions: Compound concentration 1000.0 nM
Sequence of Tyrosine-protein kinase Fgr (Homo sapiens) (P09769 2-529 limits assumed): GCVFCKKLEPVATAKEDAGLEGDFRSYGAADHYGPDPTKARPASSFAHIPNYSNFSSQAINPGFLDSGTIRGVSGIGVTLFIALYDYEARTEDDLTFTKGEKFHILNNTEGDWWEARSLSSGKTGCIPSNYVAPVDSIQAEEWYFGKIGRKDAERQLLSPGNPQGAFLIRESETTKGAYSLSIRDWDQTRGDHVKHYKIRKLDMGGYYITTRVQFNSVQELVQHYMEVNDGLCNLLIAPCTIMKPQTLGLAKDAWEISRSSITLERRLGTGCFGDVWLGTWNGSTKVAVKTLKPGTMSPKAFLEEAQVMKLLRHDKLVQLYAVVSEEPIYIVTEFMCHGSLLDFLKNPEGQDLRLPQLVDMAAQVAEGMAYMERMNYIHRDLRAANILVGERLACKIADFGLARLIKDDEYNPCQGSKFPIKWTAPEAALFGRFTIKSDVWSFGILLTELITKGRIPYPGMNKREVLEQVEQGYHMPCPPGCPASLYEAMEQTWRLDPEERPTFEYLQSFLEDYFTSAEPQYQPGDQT

[14] = test system: Receptor-type tyrosine-protein kinase FLT3 (Homo sapiens), P36888 [UNDEFINED MUTATION]; conditions: Compound concentration 1000.0 nM
[15] = biological target: Homeodomain-interacting protein kinase 1 (Homo sapiens) (UniProt Q86Z02); conditions: Compound concentration 1000.0 nM
Sequence of Homeodomain-interacting protein kinase 1 (Homo sapiens) (Q86Z02 whole entry, looked up): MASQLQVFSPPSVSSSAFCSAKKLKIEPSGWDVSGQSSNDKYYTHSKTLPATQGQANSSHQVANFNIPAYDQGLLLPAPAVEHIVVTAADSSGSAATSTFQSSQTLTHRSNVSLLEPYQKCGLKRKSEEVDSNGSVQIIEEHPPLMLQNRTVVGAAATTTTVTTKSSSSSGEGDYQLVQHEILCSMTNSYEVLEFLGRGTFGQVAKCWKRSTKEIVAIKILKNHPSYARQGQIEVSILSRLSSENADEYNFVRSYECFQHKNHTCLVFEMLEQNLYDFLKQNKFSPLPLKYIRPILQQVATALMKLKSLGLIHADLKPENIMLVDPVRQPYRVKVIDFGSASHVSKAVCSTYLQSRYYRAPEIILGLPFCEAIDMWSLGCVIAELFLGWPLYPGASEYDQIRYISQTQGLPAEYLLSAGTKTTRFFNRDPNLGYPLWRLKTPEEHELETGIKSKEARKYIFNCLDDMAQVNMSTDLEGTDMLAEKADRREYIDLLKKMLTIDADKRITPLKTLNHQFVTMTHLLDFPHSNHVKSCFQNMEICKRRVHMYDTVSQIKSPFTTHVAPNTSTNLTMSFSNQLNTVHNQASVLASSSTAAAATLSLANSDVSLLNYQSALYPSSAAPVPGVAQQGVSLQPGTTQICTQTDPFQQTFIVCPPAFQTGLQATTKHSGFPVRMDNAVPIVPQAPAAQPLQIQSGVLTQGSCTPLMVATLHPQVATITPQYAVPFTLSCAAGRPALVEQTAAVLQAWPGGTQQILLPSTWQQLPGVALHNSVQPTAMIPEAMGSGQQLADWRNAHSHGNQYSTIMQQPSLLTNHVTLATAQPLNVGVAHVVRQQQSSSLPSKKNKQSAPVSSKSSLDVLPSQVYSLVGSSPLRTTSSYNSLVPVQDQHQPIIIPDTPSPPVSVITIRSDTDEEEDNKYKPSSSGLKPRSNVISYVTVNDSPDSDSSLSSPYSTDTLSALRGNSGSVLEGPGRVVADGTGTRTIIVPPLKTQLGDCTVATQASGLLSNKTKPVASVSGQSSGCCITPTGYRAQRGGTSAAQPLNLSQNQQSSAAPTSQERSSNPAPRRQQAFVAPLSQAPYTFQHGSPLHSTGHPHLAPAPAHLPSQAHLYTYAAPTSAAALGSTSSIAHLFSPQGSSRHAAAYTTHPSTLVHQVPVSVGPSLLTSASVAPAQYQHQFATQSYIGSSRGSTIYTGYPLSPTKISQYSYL

[16] = test system: Mast/stem cell growth factor receptor Kit (Homo sapiens), P10721 [A829P]; conditions: Compound concentration 1000.0 nM
[17] = biological target: Mitogen-activated protein kinase kinase kinase 15 (Homo sapiens) (UniProt Q6ZN16); conditions: Compound concentration 1000.0 nM
[18] = biological target: Mitogen-activated protein kinase kinase kinase kinase 2 (Homo sapiens) (UniProt Q12851); conditions: Compound concentration 1000.0 nM
[19] = biological target: Mitogen-activated protein kinase kinase kinase kinase 3 (Homo sapiens) (UniProt Q8IVH8); conditions: Compound concentration 1000.0 nM
[20] = biological target: Mitogen-activated protein kinase kinase kinase kinase 4 (Homo sapiens) (UniProt O95819); conditions: Compound concentration 1000.0 nM
[21] = biological target: Dual specificity mitogen-activated protein kinase kinase 6 (Homo sapiens) (UniProt P52564); conditions: Compound concentration 1000.0 nM
[22] = biological target: Myosin-IIIb (Homo sapiens) (UniProt Q8WXR4); conditions: Compound concentration 1000.0 nM
[23] = biological target: Serine/threonine-protein kinase 38-like (Homo sapiens) (UniProt Q9Y2H1); conditions: Compound concentration 1000.0 nM
[24] = biological target: Calcium-dependent protein kinase 1 (Plasmodium falciparum) (UniProt P62344); conditions: Compound concentration 1000.0 nM
[25] = test system: Phosphatidylinositol 4,5-bisphosphate 3-kinase catalytic subunit alpha isoform (Homo sapiens), P42336 [H1047Y]; conditions: Compound concentration 1000.0 nM
[26] = biological target: Phosphatidylinositol 4-kinase beta (Homo sapiens) (UniProt Q9UBF8); conditions: Compound concentration 1000.0 nM
[27] = biological target: Serine/threonine-protein kinase N1 (Homo sapiens) (UniProt Q16512); conditions: Compound concentration 1000.0 nM
[28] = biological target: Ribosomal protein S6 kinase alpha-4 (Homo sapiens) (UniProt O75676); conditions: Compound concentration 1000.0 nM
[29] = biological target: Serine/threonine-protein kinase SIK1 (Homo sapiens) (UniProt P57059); conditions: Compound concentration 1000.0 nM
[30] = biological target: Serine/threonine-protein kinase TNNI3K (Homo sapiens) (UniProt Q59H18); conditions: Compound concentration 1000.0 nM
[31] = biological target: Non-receptor tyrosine-protein kinase TYK2 (Homo sapiens) (UniProt P29597); conditions: Compound concentration 1000.0 nM
[32] = biological target: Serine/threonine-protein kinase ULK3 (Homo sapiens) (UniProt Q6PHR2); conditions: Compound concentration 1000.0 nM
[33] = biological target: Serine/threonine-protein kinase VRK2 (Homo sapiens) (UniProt Q86Y07); conditions: Compound concentration 1000.0 nM
[34] = biological target: Serine/threonine-protein kinase WNK1 (Homo sapiens) (UniProt Q9H4A3); conditions: Compound concentration 1000.0 nM
Sequence of Serine/threonine-protein kinase WNK1 (Homo sapiens) (Q9H4A3 whole entry, looked up): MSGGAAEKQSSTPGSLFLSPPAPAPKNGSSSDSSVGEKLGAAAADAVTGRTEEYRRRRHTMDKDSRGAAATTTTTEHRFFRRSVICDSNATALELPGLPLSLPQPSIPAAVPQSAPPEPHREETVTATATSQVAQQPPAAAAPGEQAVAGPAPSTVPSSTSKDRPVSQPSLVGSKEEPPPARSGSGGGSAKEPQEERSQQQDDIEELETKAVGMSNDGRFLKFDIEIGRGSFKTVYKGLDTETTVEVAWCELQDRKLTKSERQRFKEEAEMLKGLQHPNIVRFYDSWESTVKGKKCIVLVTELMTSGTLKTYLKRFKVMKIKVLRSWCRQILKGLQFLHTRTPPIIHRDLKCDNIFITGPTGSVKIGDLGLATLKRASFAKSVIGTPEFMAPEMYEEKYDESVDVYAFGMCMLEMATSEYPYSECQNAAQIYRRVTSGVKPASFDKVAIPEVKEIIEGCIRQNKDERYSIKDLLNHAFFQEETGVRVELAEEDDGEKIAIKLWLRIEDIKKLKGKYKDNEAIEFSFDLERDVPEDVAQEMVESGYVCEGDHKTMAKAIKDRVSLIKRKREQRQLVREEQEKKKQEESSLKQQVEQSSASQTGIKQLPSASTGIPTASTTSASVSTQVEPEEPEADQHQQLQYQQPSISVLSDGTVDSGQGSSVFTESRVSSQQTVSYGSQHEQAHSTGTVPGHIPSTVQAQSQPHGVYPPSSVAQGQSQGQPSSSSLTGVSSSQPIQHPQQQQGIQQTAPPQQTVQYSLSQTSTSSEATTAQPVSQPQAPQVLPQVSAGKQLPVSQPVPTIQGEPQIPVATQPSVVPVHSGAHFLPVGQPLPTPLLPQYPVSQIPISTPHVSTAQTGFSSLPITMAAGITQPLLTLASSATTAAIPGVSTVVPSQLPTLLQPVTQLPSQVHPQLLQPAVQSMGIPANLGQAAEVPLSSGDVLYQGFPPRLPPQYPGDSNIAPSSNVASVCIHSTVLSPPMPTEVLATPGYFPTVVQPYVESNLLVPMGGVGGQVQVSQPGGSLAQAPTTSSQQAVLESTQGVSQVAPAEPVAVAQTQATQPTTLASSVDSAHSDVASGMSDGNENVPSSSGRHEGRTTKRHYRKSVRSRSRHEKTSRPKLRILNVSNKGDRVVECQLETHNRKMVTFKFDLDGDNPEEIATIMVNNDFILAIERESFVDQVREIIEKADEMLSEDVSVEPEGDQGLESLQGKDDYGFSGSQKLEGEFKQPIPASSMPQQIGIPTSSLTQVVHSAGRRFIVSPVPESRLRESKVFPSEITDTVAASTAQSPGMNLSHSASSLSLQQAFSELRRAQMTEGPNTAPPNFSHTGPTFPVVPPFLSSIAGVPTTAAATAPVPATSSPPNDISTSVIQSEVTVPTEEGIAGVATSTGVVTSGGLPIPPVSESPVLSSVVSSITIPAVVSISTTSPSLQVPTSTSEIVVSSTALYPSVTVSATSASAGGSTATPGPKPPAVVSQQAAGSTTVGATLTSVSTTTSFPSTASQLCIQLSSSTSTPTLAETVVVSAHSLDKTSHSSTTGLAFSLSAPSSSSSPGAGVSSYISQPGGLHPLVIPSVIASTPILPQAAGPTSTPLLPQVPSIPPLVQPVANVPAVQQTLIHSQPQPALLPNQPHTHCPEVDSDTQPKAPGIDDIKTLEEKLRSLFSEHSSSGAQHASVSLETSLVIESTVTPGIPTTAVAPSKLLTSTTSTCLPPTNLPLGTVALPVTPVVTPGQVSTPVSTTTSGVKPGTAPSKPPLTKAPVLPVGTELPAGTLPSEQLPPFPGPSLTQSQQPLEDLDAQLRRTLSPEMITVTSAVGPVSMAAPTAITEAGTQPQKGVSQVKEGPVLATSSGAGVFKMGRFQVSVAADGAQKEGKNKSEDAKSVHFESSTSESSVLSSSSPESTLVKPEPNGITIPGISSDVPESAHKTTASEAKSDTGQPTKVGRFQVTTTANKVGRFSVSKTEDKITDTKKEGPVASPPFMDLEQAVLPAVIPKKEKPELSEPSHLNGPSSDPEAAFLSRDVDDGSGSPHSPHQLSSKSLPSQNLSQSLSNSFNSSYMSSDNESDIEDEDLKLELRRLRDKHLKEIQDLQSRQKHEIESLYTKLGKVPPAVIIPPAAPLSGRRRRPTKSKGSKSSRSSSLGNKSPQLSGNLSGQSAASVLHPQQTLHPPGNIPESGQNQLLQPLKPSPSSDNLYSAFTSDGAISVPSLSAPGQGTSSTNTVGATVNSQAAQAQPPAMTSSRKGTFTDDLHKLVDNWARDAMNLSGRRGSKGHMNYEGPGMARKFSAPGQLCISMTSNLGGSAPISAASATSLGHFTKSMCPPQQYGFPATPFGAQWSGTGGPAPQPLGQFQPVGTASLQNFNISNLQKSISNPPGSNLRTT

[35] = biological target: 5-hydroxytryptamine receptor 1D (Homo sapiens) (UniProt P28221); conditions: Compound concentration 10.0 uM
[36] = biological target: T1, 5-hydroxytryptamine receptor 2C (Homo sapiens) (UniProt P28335); conditions: Compound concentration 10.0 uM
T1 sequence (whole entry): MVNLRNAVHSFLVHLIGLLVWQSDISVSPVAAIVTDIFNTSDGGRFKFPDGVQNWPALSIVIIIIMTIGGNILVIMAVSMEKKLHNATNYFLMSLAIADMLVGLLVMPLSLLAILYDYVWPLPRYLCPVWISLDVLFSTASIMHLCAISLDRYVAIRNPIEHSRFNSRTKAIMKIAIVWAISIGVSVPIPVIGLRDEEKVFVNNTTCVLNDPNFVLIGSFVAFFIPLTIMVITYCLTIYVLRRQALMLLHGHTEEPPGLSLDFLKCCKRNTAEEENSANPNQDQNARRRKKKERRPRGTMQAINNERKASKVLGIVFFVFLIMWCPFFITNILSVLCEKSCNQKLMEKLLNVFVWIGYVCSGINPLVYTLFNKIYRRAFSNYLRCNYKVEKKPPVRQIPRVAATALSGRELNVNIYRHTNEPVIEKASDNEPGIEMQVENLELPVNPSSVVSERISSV

Which results are given for `O=C(NS(=O)(=O)c1ccc(NCC2CCOCC2)c([N+](=O)[O-])c1)c1ccc(N2CCN(Cc3ccc(C(F)(F)F)cc3-c3ccc(Cl)cc3)CC2)cc1Oc1cnc2[nH]ccc2c1` [A-1210227]?
% Inhibition of Control Values (Mean n=2) [1]: -32.2%; residual activity [2]: 100%; residual activity [3]: 89%; residual activity [4]: 89%; residual activity [5]: 100%; residual activity [6]: 84%; residual activity [7]: 100%; residual activity [8]: 100%; residual activity [9]: 85%; residual activity [10]: 100%; residual activity [11]: 100%; residual activity [12]: 100%; residual activity [13]: 100%; residual activity [14]: 88%; residual activity [15]: 84%; residual activity [16]: 99%; residual activity [17]: 84%; residual activity [18]: 76%; residual activity [19]: 92%; residual activity [20]: 95%; residual activity [21]: 97%; residual activity [22]: 100%; residual activity [23]: 93%; residual activity [24]: 82%; residual activity [25]: 67%; residual activity [26]: 79%; residual activity [27]: 100%; residual activity [28]: 89%; residual activity [29]: 90%; residual activity [30]: 95%; residual activity [31]: 84%; residual activity [32]: 85%; residual activity [33]: 89%; residual activity [34]: 100%; inhibition [35]: -6.27%; inhibition [36]: -0.17%

How did the % Inhibition of Control Values (Mean n=2) [1] turn out when `CO[C@H]1CC[C@H](CNc2ccc(S(=O)(=O)NC(=O)c3ccc(N4CCN(CC5=C(c6ccc(Cl)cc6)CC(C)(C)CC5)CC4)cc3Oc3cnc4[nH]ccc4c3)cc2[N+](=O)[O-])CC1` [A-1211212] was run?
Its % Inhibition of Control Values (Mean n=2) is -72.6%.

What about the residual activity [2] of the same compound?
The residual activity was 71%.

And the residual activity [3]?
The residual activity was 84%.

What about the residual activity [4] of the same compound?
Its residual activity is 100%.

What about the residual activity [5] of the same compound?
Its residual activity is 100%.

And the residual activity [6]?
Its residual activity is 73%.

And the residual activity [7]?
The residual activity was 88%.

What about the residual activity [8] of the same compound?
The residual activity was 100%.

And the residual activity [9]?
The residual activity was 88%.

What about the residual activity [10] of the same compound?
The residual activity was 85%.

And the residual activity [11]?
The residual activity was 73%.

What about the residual activity [12] of the same compound?
Its residual activity is 100%.

What about the residual activity [13] of the same compound?
The residual activity was 100%.

What about the residual activity [14] of the same compound?
The residual activity was 100%.

What about the residual activity [15] of the same compound?
The residual activity was 61%.

What about the residual activity [16] of the same compound?
The residual activity was 100%.

And the residual activity [17]?
Its residual activity is 100%.

And the residual activity [18]?
Its residual activity is 83%.

And the residual activity [19]?
Its residual activity is 99%.

And the residual activity [20]?
Its residual activity is 100%.

What about the residual activity [21] of the same compound?
Its residual activity is 84%.

What about the residual activity [22] of the same compound?
Its residual activity is 69%.

And the residual activity [23]?
The residual activity was 94%.

What about the residual activity [24] of the same compound?
Its residual activity is 80%.

And the residual activity [25]?
The residual activity was 70%.

And the residual activity [26]?
The residual activity was 97%.

What about the residual activity [27] of the same compound?
Its residual activity is 83%.

What about the residual activity [28] of the same compound?
The residual activity was 90%.

What about the residual activity [29] of the same compound?
The residual activity was 90%.

What about the residual activity [30] of the same compound?
Its residual activity is 85%.

What about the residual activity [31] of the same compound?
The residual activity was 98%.

And the residual activity [32]?
The residual activity was 80%.

What about the residual activity [33] of the same compound?
The residual activity was 71%.

And the residual activity [34]?
Its residual activity is 100%.

What about the inhibition [35] of the same compound?
The inhibition was 8.17%.

What about the inhibition [36] of the same compound?
Its inhibition is -4.69%.
